In PubChem BioAssay (NCI):
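These data come from cells grown in 96-well plates and exposed to compound for 48 hours at five concentrations. TGI is the concentration that stops growth completely.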

Columns and labels:
Assay in all cases: NCI anticancer screen, dose series, 48 h
DMS 273 small cell lung = test system: DMS 273 small cell lung
SNB-75 CNS = test system: SNB-75 CNS
XF 498 CNS = test system: XF 498 CNS
LXFL 529 NSCLC = test system: LXFL 529 NSCLC
KM12 colon = test system: KM12 colon
RPMI-8226 leukemia = test system: RPMI-8226 leukemia
NCI-H522 lung = test system: NCI-H522 lung
TK-10 renal = test system: TK-10 renal
M14 melanoma = test system: M14 melanoma
SK-MEL-28 melanoma = test system: SK-MEL-28 melanoma
SNB-19 CNS = test system: SNB-19 CNS
SW-620 colon = test system: SW-620 colon
OVCAR-8 ovarian = test system: OVCAR-8 ovarian
EKVX NSCLC = test system: EKVX NSCLC
CCRF-CEM leukemia = test system: CCRF-CEM leukemia
K-562 leukemia = test system: K-562 leukemia
SR leukemia = test system: SR leukemia
HCC-2998 colon = test system: HCC-2998 colon
SNB-78 CNS = test system: SNB-78 CNS
ACHN renal = test system: ACHN renal
SK-OV-3 ovarian = test system: SK-OV-3 ovarian
IGROV1 ovarian = test system: IGROV1 ovarian
OVCAR-4 ovarian = test system: OVCAR-4 ovarian
U251 CNS = test system: U251 CNS
HOP-62 NSCLC = test system: HOP-62 NSCLC
786-0 renal = test system: 786-0 renal
CAKI-1 renal = test system: CAKI-1 renal
M19-MEL melanoma = test system: M19-MEL melanoma
A549 NSCLC = test system: A549 NSCLC
HOP-18 NSCLC = test system: HOP-18 NSCLC
UACC-62 melanoma = test system: UACC-62 melanoma
SN12C renal = test system: SN12C renal
DLD-1 colon = test system: DLD-1 colon
NCI-H23 lung = test system: NCI-H23 lung
HL-60(TB) leukemia = test system: HL-60(TB) leukemia
SK-MEL-2 melanoma = test system: SK-MEL-2 melanoma
NCI-H460 lung = test system: NCI-H460 lung
UO-31 renal = test system: UO-31 renal
MALME-3M melanoma = test system: MALME-3M melanoma
MOLT-4 leukemia = test system: MOLT-4 leukemia
COLO 205 colon = test system: COLO 205 colon
HOP-92 NSCLC = test system: HOP-92 NSCLC
SF-539 CNS = test system: SF-539 CNS
HT29 colon = test system: HT29 colon
LOX IMVI melanoma = test system: LOX IMVI melanoma
HCT-15 colon = test system: HCT-15 colon
UACC-257 melanoma = test system: UACC-257 melanoma
SF-268 CNS = test system: SF-268 CNS
HCT-116 colon = test system: HCT-116 colon
NCI-H226 lung = test system: NCI-H226 lung
OVCAR-3 ovarian = test system: OVCAR-3 ovarian
SF-295 CNS = test system: SF-295 CNS
SK-MEL-5 melanoma = test system: SK-MEL-5 melanoma
OVCAR-5 ovarian = test system: OVCAR-5 ovarian
DMS 114 small cell lung = test system: DMS 114 small cell lung
KM20L2 colon = test system: KM20L2 colon
RXF 393 renal = test system: RXF 393 renal
A498 renal = test system: A498 renal

Measured: TGI

COc1ccc2c(c1)CCc1c-2[nH]c2cc3c(cc2c1=O)OCO3
not listed: UACC-257 melanoma | SF-268 CNS | HCT-116 colon | NCI-H226 lung | OVCAR-3 ovarian | SF-295 CNS | SK-MEL-5 melanoma | OVCAR-5 ovarian | DMS 114 small cell lung | KM20L2 colon | RXF 393 renal | A498 renal
> 100 µM: all other assays above

N#Cc1c2ccccc2c(Cc2ccc3c(c2)OCCOCCOCCOCCOCCO3)c2ccccc12
19.3 µM: TK-10 renal
23.6 µM: HOP-62 NSCLC
23.9 µM: DMS 114 small cell lung
19.5 µM: IGROV1 ovarian
22.5 µM: UACC-257 melanoma
17.4 µM: OVCAR-4 ovarian
17.8 µM: DMS 273 small cell lung
21.1 µM: SF-268 CNS
30.4 µM: LXFL 529 NSCLC
35.9 µM: EKVX NSCLC
24.3 µM: NCI-H226 lung
23.5 µM: XF 498 CNS
32.1 µM: SW-620 colon
7.94 µM: RXF 393 renal
22 µM: DLD-1 colon
29.7 µM: SF-539 CNS
20.3 µM: MALME-3M melanoma
27.9 µM: SK-OV-3 ovarian
27.6 µM: A498 renal
21.7 µM: ACHN renal | KM20L2 colon
19.9 µM: SK-MEL-2 melanoma
22.6 µM: LOX IMVI melanoma
15.4 µM: UO-31 renal
19.8 µM: UACC-62 melanoma
24.7 µM: HCC-2998 colon
26.2 µM: U251 CNS
22.2 µM: CAKI-1 renal
19.4 µM: SK-MEL-28 melanoma
19.2 µM: HCT-15 colon
16.7 µM: A549 NSCLC
12.2 µM: HOP-92 NSCLC
24.5 µM: SNB-19 CNS
25.4 µM: 786-0 renal
21.8 µM: HOP-18 NSCLC
17.5 µM: SK-MEL-5 melanoma
25.3 µM: NCI-H23 lung
> 100 µM: RPMI-8226 leukemia | CCRF-CEM leukemia | K-562 leukemia | SR leukemia | MOLT-4 leukemia
18.3 µM: OVCAR-8 ovarian
22.8 µM: SN12C renal
18 µM: M14 melanoma
21.3 µM: HCT-116 colon | SF-295 CNS
31.9 µM: NCI-H522 lung | SNB-78 CNS
25.1 µM: NCI-H460 lung
17.9 µM: KM12 colon
30.1 µM: OVCAR-5 ovarian
16.4 µM: OVCAR-3 ovarian

C[P+]1(Cc2ccccc2)CCCC1
not listed: XF 498 CNS | OVCAR-4 ovarian | CAKI-1 renal | HOP-92 NSCLC | SF-268 CNS
> 100 µM: all other assays above
